Where two headings read alike, the source gives them in different places.
How the values were obtained:
[1] = Vero E6 cell viability by MTS (Dengue study); format: cell-based; settings: African green monkey, Vero E6 cells
Procedure: (§1) Vero E6 cells (BCRC #60476, Bioresource Collection and Research Center, Hsinchu, Taiwan) were treated with one of Compounds 1-9 at a predetermined concentration for 1 hour at 37° C. The cells were infected with Dengue virus type 1 (“DV1”, ATCC VR-1856, American Type Culture Collection, Manassas, VA, USA) at MOI=0.002 or Dengue virus type 2 (“DV2”, ATCC VR-1584, American Type Culture Collection, Manassas, VA, USA) at MOI=0.02, both for 5 days at 33° C. They were then fixed with 10% formalin and permeabilized with methanol. Subsequently, the cells were stained with anti-flavivirus E antibody (ATCC HB-112, American Type Culture Collection, Manassas, VA, USA) and anti-mouse IgG-FITC (MP Biomedicals, Irvine, CA, USA). The nuclei of the cells were counter stained with DAPI (Thermo Fisher Scientific, MA, USA). The E protein expression was measured by using a high-content image analysis system (Molecular Devices). The cell viability was determined by MTS. EC50 and CC50 were calculated by Prism software.

[2] = Vero E6 cell viability by MTS (Zika study); format: cell-based; settings: African green monkey, Vero E6 cells
Procedure: (§2) Vero E6 cells (BCRC #60476, Bioresource Collection and Research Center, Hsinchu, Taiwan) were treated with one of Compounds 1-9 at a predetermined concentration for 1 hour at 37° C. The cells were adsorbed with Zika virus (ATCC VR-1843, American Type Culture Collection, Manassas, VA, USA) at MOI=0.02 for 49 hours at 37° C. The cells were fixed with 10% formalin, permeabilized with methanol. The cells were stained with anti-flavivirus E antibody (ATCC HB-112, American Type Culture Collection, Manassas, VA, USA) and anti-mouse IgG-FITC (MP Biomedicals, Irvine, CA, USA). The nuclei were counter stained with DAPI (in blue) (Thermo Fisher Scientific, MA, USA). The E protein expression was measured using a high-content image analysis system (Molecular Devices). The cell viability was determined by MTS. Both EC50 and CC50 were calculated by Prism software.
(§3) Their cytotoxic effects were also determined by the MTS assay described above using Vero E6 cells.

[3] = system: Zika virus; assay: Zika virus IFA assay (E protein) in Vero E6 cells; format: cell-based; settings: read-out: EC50 (Zika virus)
Procedure: Compounds 1-9 were evaluated for their inhibitory activities against Zika virus using an IFA assay, which targeted Zika virus Envelope (“E”) protein.
as §2

[4] = system: Dengue virus type 2; assay: Dengue virus type 2 IFA assay (E protein) in Vero E6 cells; format: cell-based; settings: MOI 0.02, 5 days at 33° C, read-out: DV2 EC50
Procedure: (§4) Compounds 1-9 were evaluated for their inhibitory activities against Dengue virus, another single positive-stranded RNA virus belonging to genus of flavivirus, using an IFA assay that targeted the Dengue virus Envelope (“E”) protein.
as §1

[5] = system: Dengue virus type 1; assay: Dengue virus type 1 IFA assay (E protein) in Vero E6 cells; format: cell-based; settings: MOI 0.002, 5 days at 33° C, read-out: DV1 EC50
Procedure: as §4, §1

[6] = system: Vero E6 cells; assay: Vero E6 cell viability by MTS (Dengue study); format: cell-based
Procedure: as §1

[7] = system: Vero E6 cells; assay: Vero E6 cell viability by MTS (Zika study); format: cell-based
Procedure: as §2, §3

[8] = system: SARS-CoV-2; assay: SARS-CoV-2 cytopathic effect (CPE) by visualization in infected Vero E6 cells; format: cell-based; settings: Severe acute respiratory syndrome coronavirus 2, Vero C1008, read-out: SARS-CoV-2 inhibition EC50, CPE
Procedure: Compounds 1-3 were examined for their inhibitory activity against SARS-CoV-2 in Vero E6 cells. Cytopathic effects (“CPE”) of SARS-CoV-2 infected Vero E6 cells, with treatment of compounds in 2-fold dilution at a series of 12 concentrations, were visualized. EC50 and CC50 values were calculated.

[9] = system: SARS-CoV-2; assay: SARS-CoV-2 immunofluorescence assay (IFA), N protein expression in Vero E6 cells; format: cell-based
Procedure: Vero E6 cells derived from BCRC #60476 (Bioresource Collection and Research Center, Hsinchu, Taiwan) were treated with each compound at an indicated concentration for 1 hour at 37° C. The cells were adsorbed with SARS-CoV-2 viruses (TCDC #4, National Taiwan University, Taipei, Taiwan, ROC) at multiplicity of infection (“MOI”) of 0.01 for 1 hour at 37° C. After virus adsorption, the cells were washed with phosphate-buffered saline (“PBS”). A fresh medium containing the compound was added at an indicated concentration. The resultant mixture was incubated for 2 days. The cells were fixed with 4% paraformaldehyde and permeabilized with a 0.5% Triton™ X-100 detergent solution (Thermo Fisher Scientific, Waltham, MA). Subsequently, they were stained with an anti-SARS-CoV-2 N protein antibody and anti-human IgG-488 (in green). The nuclei of the cells were counter stained with 4′,6-diamidino-2-phenylindole (“DAPI”, Thermo Fisher Scientific, MA, USA). The N protein expression was measured using a high-content image analysis system (Molecular Devices, San Jose, CA). The cell viability was determined by Cell Counting Kit-8 (Sigma-Aldrich, St. Louis, MO) EC50 and CC50 values were calculated by Prism software. […] Both EC50 and CC50 are measured in molar units, e.g., mol/L (“M”), μmol/L (“μM”), and nmol/L (“nM”).

[10] = HCT-8 cell viability (MTS); settings: human, HCT-8 cells
[11] = system: HCoV-OC43; assay: HCoV-OC43 IFA assay (N protein) in HCT-8 cells; format: cell-based
[12] = system: HCoV-229E; assay: HCoV-229E cytopathic effect / end point assay by TCID50 with crystal violet in MRC5 cells; settings: Human coronavirus 229E, MRC5, read-out: EC50 (HCoV-229E)
Procedure: An end point assay by TCID50 was performed. Crystal violet was used to stain live cells to determine the EC50 of each compound. Further, CC50 and selective index were calculated.

[13] = system: SARS-CoV-2; assay: SARS-CoV-2 plaque assay in Vero E6 cells; format: cell-based; settings: Severe acute respiratory syndrome coronavirus 2, Vero C1008
Procedure: The assay was performed in triplicate in 24-well tissue culture plates. Vero E6 cells were seeded in Dulbecco's modified Eagle's medium (“DMEM”) with 10% Fetal Bovine Serum (“FBS”, Biological Industries, Kibbutz, Israel) and antibiotics one day before infection. SARS-CoV-2 viruses were added to the cell monolayer and allowed to sit for 1 hour at 37° C. After viruses were removed, the cell monolayer was washed once with PBS before covering with media containing agarose or methylcellulose for 5-7 days. The cells were fixed with 3.7% formaldehyde overnight followed by removal of overlay media. They were then stained with crystal violet to count the plaque-forming units (“PFU”). The percentage of inhibition was calculated as [1−(VD/VC)]×100%, where VD and VC refer to the virus titer in the presence and absence of a test compound, respectively.

[14] = Vero E6 cells, MOI 0.02, 49 hours
[15] = Severe acute respiratory syndrome coronavirus 2, Vero C1008, 48 h, Vero E6 cells, MOI 0.01, 2 days, run 1, read-out: SARS-CoV-2 inhibition EC50, IFA-1
[16] = Severe acute respiratory syndrome coronavirus 2, Vero C1008, 48 h, Vero E6 cells, MOI 0.01, 2 days, run 2, read-out: SARS-CoV-2 inhibition EC50, IFA-2
[17] = Severe acute respiratory syndrome coronavirus 2, Vero C1008, IFA, range over Compounds 1, 2 and 3, read-out: EC50 against SARS-CoV-2 (range given)
[18] = Dengue virus, Vero C1008, 120 h
[19] = Zika virus, Vero C1008, 49 h, Vero E6 cells, MOI 0.02, 49 hours
[20] = Betacoronavirus 1, OC43, HCT-8 cells, MOI 0.05, means ± S.D. from three independent experiments, read-out: EC50 (HCoV-OC43)

Structure (SMILES)	CC50 [1]	CC50 [2]	EC50 [8]	EC50 [9, 15]	EC50 [9, 16]	EC50 [9, 17]	CC50 [10]	EC50 [4, 18]	EC50 [12]	EC50 [5, 18]	EC50 [3, 19]	EC50 [11, 20]	other results
CCN1Cc2c(c3cc(OC)c(OC)cc3c3cc(OC)c(OC)cc23)C(O)C1 (single isomer, unassigned) [Compound 7]	> 5 µM	> 5 µM											EC50 [3, 14]: 0.0444 µM; EC50 [4]: 0.124 µM; EC50 [5]: 0.0731 µM
CCN1Cc2c(c3cc(OC)c(OC)cc3c3cc(OC)c(OC)cc23)C(O)C1 (single isomer, unassigned) [Compound 9]													CC50 [6]: > 5 µM; CC50 [7]: > 5 µM; EC50 [3, 14]: 0.144 µM; EC50 [4]: 0.616 µM; EC50 [5]: 0.296 µM
COc1cc2c3c(c4cc(OC)c(OC)cc4c2cc1OC)CN1CCC[C@H]1C3 [Compound 1, (13as)-2,3,6,7-tetramethoxy-9,11,12,13,13a,14-hexahydrophenanthro[9,10-f] indolizine]	> 5 µM	> 5 µM	0.078 µM	0.064 µM	0.0768 µM	0.009 to 0.077 µM	> 10 µM	0.0325 µM	0.0714 ± 0.0132 µM	0.0184 µM			EC50 ([3]; Zika virus, Vero C1008, 49 h): 0.0614 µM; EC50 ([11]; Betacoronavirus 1, OC43, HCT-8, read-out: EC50 (HCoV-OC43)): 0.068 ± 0.0027 µM
CCN1Cc2c(c3ccc(OC)cc3c3cc(OC)c(OC)cc23)C(O)C1 (stereo not drawn) [Compound 2]	> 5 µM	> 5 µM	0.0025 µM	0.0091 µM	0.0139 µM	0.009 to 0.077 µM	> 10 µM	0.0047 µM	0.0065 ± 0.001 µM	0.0043 µM	0.0153 µM	0.0164 ± 0.0047 µM	EC50 ([13]; Vero E6 cells, run 1, read-out: SARS-CoV-2 inhibition EC50, Plaque assay-1): 0.0108 µM; EC50 ([13]; Vero E6 cells, run 2, read-out: SARS-CoV-2 inhibition EC50, Plaque assay-2): 0.0138 µM; EC50 ([13]; infected Vero E6 cells, four measurements, read-out: EC50 against SARS-CoV-2, plaque assay, all four measurements): 0.011 to 0.014 µM
CCN1Cc2c(c3ccc(OC)cc3c3cc(OC)c(OC)cc23)C(O)C1C (stereo not drawn) [Compound 3]	> 5 µM	> 5 µM	0.02 µM	0.0316 µM	0.0319 µM	0.009 to 0.077 µM	> 10 µM	0.029 µM	0.0254 ± 0.0031 µM	0.0196 µM	0.0159 µM	0.0559 ± 0.0062 µM	
COc1cc2c3c(c4cc(OC)c(OC)cc4c2cc1OC)CN1CCCCC1C3 (stereo not drawn) [Compound 4]	> 5 µM	> 5 µM					> 10 µM	0.0083 µM		0.0076 µM	0.0133 µM	0.0517 ± 0.0061 µM	
CCN1CCc2c(c3cc(OC)c(OC)cc3c3cc(OC)ccc23)C1 [Compound 5]	> 5 µM	> 5 µM					> 10 µM	0.286 µM		0.131 µM	0.156 µM		
COc1cc2c3c(c4cc(OC)c(OC)cc4c2cc1OC)C[N+]1([O-])CCCC1C3 (stereo not drawn) [Compound 6]	> 5 µM	> 5 µM					> 10 µM	2.64 µM		1.64 µM	1.04 µM	1.89 ± 0.228 µM	Selectivity index (HCoV-OC43) ([11]; CC50/EC50, HCT-8 cells): >5.3
CCCN1Cc2c(c3cc(OC)c(OC)cc3c3cc(OC)c(OC)cc23)C(O)C1 (stereo not drawn) [Compound 8]	> 5 µM	> 5 µM						0.617 µM		0.247 µM	0.304 µM		

Reference: patent US20240033256A1, “INHIBITORS OF POSITIVE STRAND RNA VIRUSES” (priority 2020, published 2024)
